Laboratory results taken from patent US10413535B2, “Pharmaceutical compositions comprising an integrin ALPHA4 antagonist for use in treating ocular inflammatory conditions” (AXEROVISION, INC., priority 2015, dated 2019).
“Also recorded” adds a separate entry of the source.

Columns and labels:
[1] = test system: 53 receptors and 4 transporters; assay: MDS Pharma screen, radioligand binding assays; settings: at 10 μM
[2] = test system: C57BL/6 mice subjected to desiccating stress; assay: Corneal OGD staining in murine desiccating stress model; format: in vivo, mouse
Procedure: Female C57BL/6 mice, aged 6 to 8 weeks, were subjected to DS for 5 days (DS5) as described previously (de Paiva et al., 2006b; Niederkorn et al., 2006). Topical bilateral treatment with 1 eye drop per eye (2 μL volume) or subcutaneous injection (4 μL volume), 2 times per day, was initiated on day 1 concurrently with DS and continued through day 4. Treatment with the compound of formula I or dexamethasone phosphate 0.1% was compared to correspondingly treated vehicle controls. Mice were randomized to receive one of the test articles. Control mice were kept in a non-stressed (NS) environment maintained at 50-75% relative humidity without exposure to airflow or scopolamine and were not treated with test or control article. Treatment effects were assessed on corneal staining with Oregon Green Dextran (OGD); expression of inflammatory markers in ocular surface tissues by real time PCR; cell population analysis in draining cervical lymph nodes by FACS analysis; conjunctival T cell infiltration by immunohistochemistry.
On the morning of the 5th day, mice received one s.c. dose of scopolamine. Two hours later corneal staining was assessed using Oregon Green Dextran (OGD-488), which is a conjugated fluorescent dye of a 70 kDa molecular size (Invitrogen-Molecular Probes) as previously described (de Paiva et al., 2006b). The procedure consisted of instillation of 0.5 μL of OGD on the cornea using a glass capillary pipette, 1 minute before euthanasia. Mice were euthanized by inhalation of isoflurane gas followed by cervical dislocation. Eyes were then rinsed with 2 mL of BSS. Excess liquid was carefully blotted from the ocular surface with filter papers without touching the cornea. Digital pictures of both eyes were taken under 470 nm excitation and 488 nm emission wave lengths using a Nikon SMZ-1500 stereo microscope, with an exposure time of 2 seconds. Both eyes from each animal were evaluated; the right eye always first followed by the left eye. The mean intensity in the central cornea was evaluated from digital images using NIS Elements (version 3.0) by placing a fixed region of interest (a 2-mm diameter circle) on the central cornea. The mean intensity of the fluorescence was read by the software and stored in a database (Excel, Microsoft). This fluorescence measurement in the central ring was done independently by 2 masked observers, for each mouse eye. By the conclusion of the experiment, results were averaged from both observers using all data collected during all study weeks (Excel, Microsoft). Results are presented as geometric mean±95% confidence interval of gray levels.
Due to skewed distribution of OGD data, the analysis was done on the log 10 scale to make the data more normally distributed. Log 10 OGD data was averaged across two observers and the left and right eyes. The mixed effects ANOVA model included treatment group as a fixed effect and week as a random effect. 95% and 99% confidence intervals were constructed for the disease (5 day DS vs untreated group kept in separate vivarium) and compound treatment effects (treatment vs vehicle). As these comparisons were all pre-planned (comparing each treatment to its vehicle group), no adjustment was made for multiplicity. […] T cell density was calculated for each section and averaged across sections for each animal. […]

[3] = test system: non-α4 integrins, including LFA-1; settings: cited from earlier work
Beagle Dogs = assay: 13-week topical ocular toxicity study in Beagle dogs; format: in vivo, dog
Procedure: GW559090A was given to Beagle Dogs by topical ocular administration for 13 weeks. Animals were dosed six or twelve times per day, with one hour between doses. Treatment groups were: (1) vehicle (12 times a day), (2) 30 mg/mL/occasion given six times a day, (3) 50 mg/mL/occasion given six times a day, or (4) 50 mg/mL/occasion, given 12 times a day.
GW559090A was formulated as a stock solution in 25 mM phosphate buffer with 0.5% sodium chloride to provide a 50 mg/mL stock solution, which was used for administration to Groups 3 or 4, or further diluted with 25 mM phosphate buffer with 0.75% sodium chloride to provide a 30 mg/mL solution for administration to Group 2.
During the 13 week treatment period dogs received daily topical ocular doses of GW559090 or vehicle (12 times a day) at a constant dose volume of 0.06 mL (given 6 or 12 times a day, with one hour between doses). The test article formulation or vehicle was carefully dropped into the everted lower eyelid of the left eye from a suitable distance, to prevent contact of the positive displacement pipette with the eye. The lower and upper lids were then gently held together for approximately five seconds, to prevent loss of dose and aid even distribution across the external ocular surface. The un-dosed eye was not manipulated at any time and served as a within animal untreated control site.

[4] = test system: RPMI 8866 binding to VCAM-1; assay: VCAM cell adhesion assay, RPMI 8866 cells; format: cell-based; settings: Homo sapiens; RPMI 8866 cells to VCAM-1; read-out: Inhibition of cell adhesion (IC50)
Procedure: Jurkat J6 cells (human lymphoblast cell line) were grown as a suspension culture in RPMI 1640 supplemented with FCS (10%) and glutamine (2 mM). RPMI8866 cells (human B lymphoid cell line) were grown as a suspension culture in RPMI 1640 supplemented with FCS (10%) and glutamine (2 mM). RBL-2H3 cells (rat basophilic cell line) were cultured in Eagle's MEM plus Earles salts supplemented with 2 mM L-glutamine, 1 mM sodium pyruvate, 1× non-essential amino acids, 1 mM Na pyruvate 10% heat inactivated foetal calf serum.
Polystyrene 96-well microtitre plates were coated with IgG at a concentration of 0.05 mg/mL in bicarbonate buffer for 2 hours at 37° C. The solution was aspirated and the plates washed twice with PBS. The plates were then incubated overnight at 4° C. with a 1:4000 dilution of VCAM-1 of 3% BSA in PBS. Prior to use the VCAM-1 was aspirated and the plates washed twice with PBS.
J6 or RPMI cells (as required) were labelled with the fluorescent dye BCECF-AM (10 μM and 6×10^6 cells/mL) for 10 min at 37° C. before the excess was removed by centrifugation at 500 g for 5 min and the cells resuspended at a cell concentration of 1.2×10^7 cells/mL in HBSS. Equal volumes HBSS containing the compound of formula I (over concentration range 38.1 pM to 10 μM) and cells were added to the VCAM-1 coated plates. […] The plates were counted in a Wallac Viktor.

[5] = topical ocular 13 weeks, 30 or 50 mg/mL/occasion six times daily or 50 mg/mL/occasion 12 times daily

Cc1ccccc1OCC(=O)N[C@@H](CC(C)C)C(=O)N[C@@H](Cc1ccc(OC(=O)N2CCC(C(N)=O)CC2)cc1)C(=O)O [GW559090, (2S)-3-[4-({[4-(Aminocarbonyl)-1-piperidinyl]carbonyl}oxy)phenyl]-2-[((2S)-4-methyl-2-{[2-(2-methylphenoxy)acetyl]amino}pentanoyl)amino]propanoic acid]
Inhibition in radioligand binding assays [1]: No significant inhibition
OGD intensity score (corneal barrier disruption) ([2]; subcutaneous 120 μg 2 times per day, 5 days DS): not observed
OGD intensity score (corneal staining / corneal barrier disruption) ([2]; topical bilateral 2 times per day, 5 days DS, vs vehicle (GW559090 1-30 mg/mL; Dex 0.1%), listed as compound of formula I): significant decrease; also recorded: significantly decreased; also recorded: dose-dependently prevents
Most efficacious concentration on OGD intensity score ([2]; topical, 1 to 30 mg/mL investigated): 30 mg/mL
Selectivity vs. non-α4 integrins [3]: highly selective
No-Observed-Adverse-Effect level (NOAEL) (Beagle Dogs; given 12 times a day, 13 weeks): 50 mg/mL/occasion
Ocular change or systemic toxicity (Beagle Dogs; [5]): no ocular change or systemic toxicity
Tolerability (Beagle Dogs; [5]): well-tolerated
IC50 [4]: 4.81 nM
